In brackets after ≈: the same amount, converted by molar mass.
Key:
[1] = molecular target: T1, Nuclear receptor ROR-gamma (Mus musculus, UniProt P51450); experiment: Inverse agonist activity at RORgammat in mouse Th17 cells; type: cell-based
T1 sequence (P51450 whole entry): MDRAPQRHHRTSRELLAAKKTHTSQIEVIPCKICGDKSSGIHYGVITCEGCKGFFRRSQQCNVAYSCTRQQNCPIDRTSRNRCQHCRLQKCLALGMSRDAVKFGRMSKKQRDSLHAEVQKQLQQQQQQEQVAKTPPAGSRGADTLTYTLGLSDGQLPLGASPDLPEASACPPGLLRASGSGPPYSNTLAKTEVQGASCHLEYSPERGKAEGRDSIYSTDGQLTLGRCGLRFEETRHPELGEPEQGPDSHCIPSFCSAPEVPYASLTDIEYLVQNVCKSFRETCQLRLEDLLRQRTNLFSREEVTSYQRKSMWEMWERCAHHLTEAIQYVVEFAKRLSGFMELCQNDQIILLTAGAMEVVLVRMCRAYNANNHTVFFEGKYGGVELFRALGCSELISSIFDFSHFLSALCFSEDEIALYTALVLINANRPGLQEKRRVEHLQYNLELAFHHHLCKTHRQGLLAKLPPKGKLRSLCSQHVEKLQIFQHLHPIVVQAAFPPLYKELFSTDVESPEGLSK

[2] = molecular target: T2, Oxysterols receptor LXR-alpha (Homo sapiens, UniProt Q13133); experiment: Inverse agonist activity of LXRalpha (unknown origin)
T2 sequence (Q13133 whole entry): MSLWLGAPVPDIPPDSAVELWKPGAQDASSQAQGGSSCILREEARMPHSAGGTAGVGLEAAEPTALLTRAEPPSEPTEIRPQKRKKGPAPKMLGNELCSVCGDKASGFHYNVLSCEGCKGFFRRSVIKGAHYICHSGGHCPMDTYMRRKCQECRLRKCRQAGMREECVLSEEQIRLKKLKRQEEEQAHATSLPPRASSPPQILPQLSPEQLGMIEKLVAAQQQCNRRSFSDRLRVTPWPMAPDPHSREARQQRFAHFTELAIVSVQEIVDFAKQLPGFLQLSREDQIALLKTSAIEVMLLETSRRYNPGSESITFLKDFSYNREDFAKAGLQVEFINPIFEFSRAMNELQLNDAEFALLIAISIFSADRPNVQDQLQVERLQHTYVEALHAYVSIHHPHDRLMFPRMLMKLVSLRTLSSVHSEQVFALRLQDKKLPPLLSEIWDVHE

[3] = molecular target: T3, Oxysterols receptor LXR-beta (Homo sapiens, UniProt P55055); experiment: Inverse agonist activity of LXRbeta (unknown origin)
T3 sequence (P55055 whole entry): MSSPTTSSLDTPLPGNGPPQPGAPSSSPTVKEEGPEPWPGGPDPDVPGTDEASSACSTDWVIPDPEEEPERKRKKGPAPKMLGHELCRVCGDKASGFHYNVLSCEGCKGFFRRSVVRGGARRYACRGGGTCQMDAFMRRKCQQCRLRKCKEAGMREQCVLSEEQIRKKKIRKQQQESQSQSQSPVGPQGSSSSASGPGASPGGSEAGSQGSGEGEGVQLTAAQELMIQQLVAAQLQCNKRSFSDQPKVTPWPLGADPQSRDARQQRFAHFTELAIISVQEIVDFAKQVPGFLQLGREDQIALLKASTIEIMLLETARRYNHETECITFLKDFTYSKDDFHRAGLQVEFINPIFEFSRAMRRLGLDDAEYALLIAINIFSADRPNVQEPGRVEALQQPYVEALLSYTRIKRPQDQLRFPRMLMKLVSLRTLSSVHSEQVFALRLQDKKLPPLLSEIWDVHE

[4] = Metabolic stability in cynomolgous monkey liver microsomes assessed as half life; type: ADME, Macaca fascicularis, Microsome; settings: cynomolgus monkey
Cytochrome P450 2C19 = Cytochrome P450 2C19 (Homo sapiens, UniProt P33261); experiment: Inhibition of recombinant CYP2C19 (unknown origin); type: ADME
[5] = Fraction unbound in human plasma; type: ADME, cell-free
[6] = Fraction unbound in mouse plasma; type: ADME, cell-free
[7] = Solubility of compound at pH 7.4; type: physicochemical; settings: buffer
[8] = Solubility of compound at pH 6.5; type: physicochemical; settings: buffer
[9] = Solubility of compound at pH 1; type: physicochemical; settings: buffer
[10] = Total AUC in BALB/c mouse at 2 mg/kg, iv; type: ADME, organism-based; design: route intravenous, time AUCmax, dose 2 mg/kg; settings: in vivo
[11] = Total AUC in BALB/c mouse at 4 mg/kg, po; type: ADME, organism-based; design: time AUCmax, route oral, dose 4 mg/kg; settings: in vivo
[12] = Clearance in BALB/c mouse at 2 mg/kg, iv; type: ADME, organism-based; settings: in vivo
[13] = Volume of distribution at steady state in BALB/c mouse at 2 mg/kg, iv; type: ADME, organism-based; settings: in vivo, read-out: Vdss
[14] = Half life in BALB/c mouse at 2 mg/kg, iv; type: ADME, organism-based; settings: in vivo
[15] = Total AUC in rat at 2 mg/kg, iv; type: ADME, organism-based; design: time AUCmax, route intravenous, dose 2 mg/kg; settings: in vivo
[16] = Total AUC in rat at 4 mg/kg, po; type: ADME, organism-based; design: time AUCmax, route oral, dose 4 mg/kg; settings: in vivo
[17] = Total AUC in dog at 1 mg/kg, iv; type: ADME, organism-based, Canis lupus familiaris; design: route intravenous, time AUCmax, dose 1 mg/kg; settings: in vivo
[18] = Clearance in dog at 1 mg/kg, iv; type: ADME, organism-based, Canis lupus familiaris; settings: in vivo
[19] = Volume of distribution at steady state in dog at 1 mg/kg, iv; type: ADME, organism-based, Canis lupus familiaris; settings: in vivo, read-out: Vdss
[20] = Half life in dog at 1 mg/kg, iv; type: ADME, organism-based, Canis lupus familiaris; settings: in vivo
[21] = Cmax in cynomolgus monkey at 2 mg/kg, po; type: ADME, organism-based, Macaca fascicularis; design: route oral, dose 2 mg/kg; settings: in vivo
[22] = Clearance in cynomolgus monkey at 1 mg/kg, iv; type: ADME, organism-based, Macaca fascicularis; settings: in vivo
[23] = Half life in cynomolgus monkey at 1 mg/kg, iv; type: ADME, organism-based, Macaca fascicularis; settings: in vivo

Cytochrome P450 2C19, sequence (P33261 whole entry): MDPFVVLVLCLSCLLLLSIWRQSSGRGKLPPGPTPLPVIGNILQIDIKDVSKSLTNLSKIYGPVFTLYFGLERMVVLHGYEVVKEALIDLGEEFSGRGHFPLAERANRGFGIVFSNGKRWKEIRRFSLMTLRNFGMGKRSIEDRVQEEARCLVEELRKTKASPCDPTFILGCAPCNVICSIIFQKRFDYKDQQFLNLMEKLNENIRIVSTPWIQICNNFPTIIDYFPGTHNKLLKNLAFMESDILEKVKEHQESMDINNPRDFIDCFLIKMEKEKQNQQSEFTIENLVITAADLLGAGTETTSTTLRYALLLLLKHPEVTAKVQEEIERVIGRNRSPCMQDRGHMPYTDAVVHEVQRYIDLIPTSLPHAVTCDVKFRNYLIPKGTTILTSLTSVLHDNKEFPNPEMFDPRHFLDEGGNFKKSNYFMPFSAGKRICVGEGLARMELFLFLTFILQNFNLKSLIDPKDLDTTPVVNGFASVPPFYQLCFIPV

- EC50 [1]: 0.002 µM
- EC50 [2]: > 12 µM
- EC50 [3]: > 7.5 µM
- half-life [4]: > 2 h
- IC50 (Cytochrome P450 2C19): > 20 µM
- fraction unbound [5]: 0.012
- fraction unbound [6]: 0.016
- solubility [7]: 1600 µg/mL (≈ 2400 µM)
- solubility [8]: 350 µg/mL (≈ 524 µM)
- solubility [9]: 1.4 µg/mL (≈ 2.1 µM)
- AUC [10]: 20 µM·h
- AUC [11]: 39 µM·h
- clearance [12]: 2.5 mL/min/kg
- Vd [13]: 1.6 L/kg
- half-life [14]: 7.7 h
- AUC [15]: 20 µM·h
- AUC [16]: 44 µM·h
- AUC [17]: 80 µM·h
- clearance [18]: 0.3 mL/min/kg
- Vd [19]: 0.7 L/kg
- half-life [20]: 28 h
- Cmax [21]: 3.9 µM
- clearance [22]: 1.1 mL/min/kg
- half-life [23]: 27 h
SMILES: C[C@H]1C[C@H](C(=O)O)CC[C@H]1C(=O)N1CC[C@@]2(S(=O)(=O)c3ccccc3)c3cc(F)c(C(F)(C(F)(F)F)C(F)(F)F)cc3CC[C@@H]12

Source: ChEMBL document CHEMBL4699477, “Tricyclic sulfones as potent, selective and efficacious RORγt inverse agonists - Exploring C6 and C8 SAR using late-stage functionalization” (Bioorg Med Chem Lett, 2020)
